This is an account of results in PubChem BioAssay (NCI).

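Dose response: 5 concentrations. Exposure: 48 h. Format: 96-well plates. Endpoint: linear interpolation; highest concentration if not reached. Here, GI50 denotes the concentration required for 50% inhibition of growth. TGI marks complete inhibition of growth.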

One may read the GI50 as the concentration at which growth is held to half of that of the control. What is called TGI is the concentration at which net growth stops. A higher TGI goes with less potent growth arrest.

Test systems include DU-145 prostate; SK-MEL-28 melanoma; SN12C renal; UO-31 renal; SK-OV-3 ovarian; SR leukemia; T-47D breast; A549 NSCLC; K-562 leukemia; MOLT-4 leukemia.
Experiment in all cases: DTP human tumour cell line panel, 48 h

Take `CCOc1ccc(/C=N/Nc2cc(C)nc3ccc(Cl)cc23)cc1`: the GI50 in the test on DU-145 prostate was 1.82 µM; in the test on SK-MEL-28 melanoma, 1.78 µM; in the test on SN12C renal it was 1.82 µM; in the test on UO-31 renal it was 1.63 µM; in the test with SK-OV-3 ovarian it was 2.86 µM; with SR leukemia, 1.12 µM. The GI50 in the test on T-47D breast was 1.94 µM; with A549 NSCLC, 2 µM; in the test on K-562 leukemia, 1.36 µM; in the test with MOLT-4 leukemia, 1.89 µM. For the same compound, the TGI in the test on DU-145 prostate is 3.38 µM; with SK-MEL-28 melanoma, 3.19 µM; in the test on SN12C renal, 3.4 µM; in the test with UO-31 renal, 2.98 µM; in the test with SK-OV-3 ovarian it was 7.29 µM; in the test with SR leukemia, 3.5 µM. Also, the TGI in the test with T-47D breast came out at 3.8 µM; with A549 NSCLC, 3.72 µM; in the test on K-562 leukemia it was 2.98 µM; with MOLT-4 leukemia, 3.85 µM.
`O=C(Nc1cccc(-n2cc(-c3ccncc3)c(-c3cc(O)cc(Cl)c3)n2)c1)Nc1ccc(Cl)c(Cl)c1`: the GI50 in the test with DU-145 prostate is 2.8 µM; in the test with SK-MEL-28 melanoma, 2.14 µM; in the test with SN12C renal, 2.78 µM; in the test with UO-31 renal, 1.91 µM; in the test with SK-OV-3 ovarian, 3.4 µM; in the test on SR leukemia, 1.31 µM. Also, the GI50 in the test with T-47D breast is 2.39 µM; with A549 NSCLC, 1.96 µM; in the test on K-562 leukemia, 2.56 µM; in the test on MOLT-4 leukemia it was 1.43 µM. Besides, the TGI with DU-145 prostate stood at 10.1 µM; in the test with SK-MEL-28 melanoma, 5.55 µM; in the test with SN12C renal, 18.1 µM; with UO-31 renal it was 6.51 µM; in the test on SK-OV-3 ovarian it was 9.43 µM; in the test with SR leukemia, 4.24 µM. Further, the TGI in the test with T-47D breast is 6.17 µM; with A549 NSCLC, 7.54 µM; in the test on K-562 leukemia it was more than 100 µM; with MOLT-4 leukemia, 5.16 µM.
On to `COc1ccccc1/C=C1\CCC(CN(C)C)C1=O` (stereo not given), for which the TGI in the test on DU-145 prostate came out at 47.1 µM; in the test with SK-MEL-28 melanoma, 12.2 µM; with SN12C renal, 13.3 µM; in the test with UO-31 renal, 18 µM; in the test with SK-OV-3 ovarian, 33.7 µM; in the test on SR leukemia, 13 µM. In addition, the TGI was 28.8 µM in the test on T-47D breast, 40.6 µM in the test on A549 NSCLC, 11.3 µM in the test with K-562 leukemia and 17.5 µM with MOLT-4 leukemia.
Take `O=Cc1ncc(-c2ccc(C(F)(F)F)cc2)c(NC2CCCCCC2)n1`: the GI50 is more than 10 µM in the test with DU-145 prostate; more than 10 µM in the test with SK-MEL-28 melanoma; more than 10 µM in the test on SN12C renal; more than 10 µM in the test with UO-31 renal; more than 10 µM in the test with SK-OV-3 ovarian; 5.7 µM with SR leukemia. The GI50 in the test with T-47D breast, in the test on A549 NSCLC, with K-562 leukemia and in the test with MOLT-4 leukemia was more than 10 µM throughout. In addition, the TGI with DU-145 prostate, in the test with SK-MEL-28 melanoma, with SN12C renal, in the test with UO-31 renal, in the test with SK-OV-3 ovarian and with SR leukemia was more than 10 µM in each case. The TGI in the test with T-47D breast, with A549 NSCLC, in the test on K-562 leukemia and in the test on MOLT-4 leukemia was more than 10 µM throughout.
Regarding `Clc1ccc(N/N=C/c2ccccn2)nc1`, the GI50 in the test with DU-145 prostate is 0.445 µM; in the test with SK-MEL-28 melanoma, 0.598 µM; with SN12C renal, 0.469 µM; with UO-31 renal, 0.303 µM; in the test with SK-OV-3 ovarian, 0.508 µM; in the test on SR leukemia it was 0.339 µM. Further, the 50% growth inhibitory concentration (GI50) in the test on T-47D breast is 0.349 µM; in the test with A549 NSCLC, 0.518 µM; in the test with K-562 leukemia, 0.383 µM; in the test with MOLT-4 leukemia, 0.339 µM. Further, the TGI in the test on DU-145 prostate was more than 100 µM; in the test with SK-MEL-28 melanoma it was more than 100 µM; in the test on SN12C renal, more than 100 µM; with UO-31 renal it was 1.57 µM; in the test with SK-OV-3 ovarian it was more than 100 µM; in the test on SR leukemia it was more than 52.8 µM. Besides, the total growth inhibition concentration (TGI) with T-47D breast was more than 63.5 µM; in the test on A549 NSCLC, more than 100 µM; in the test with K-562 leukemia, more than 100 µM; in the test on MOLT-4 leukemia, more than 50.7 µM.
With `C=C1C(=O)O[C@H]2[C@H]1CC/C(COC(=O)NCc1c[nH]c3ccc(OC)cc13)=C\CC[C@@]1(C)O[C@@H]21`, the GI50 in the test on DU-145 prostate is 1.35 µM; in the test on SK-MEL-28 melanoma, 1.52 µM; in the test with SN12C renal it was 1.42 µM; with UO-31 renal, 1.74 µM; in the test on SK-OV-3 ovarian, 12.7 µM; with SR leukemia, 0.331 µM. Moreover, the GI50 was 1.89 µM in the test on T-47D breast, 3.26 µM with A549 NSCLC, 0.279 µM in the test on K-562 leukemia and 1.32 µM in the test with MOLT-4 leukemia. For the same compound, the TGI in the test on DU-145 prostate was found to be 2.83 µM; in the test on SK-MEL-28 melanoma, 3.34 µM; in the test with SN12C renal, 5.21 µM; with UO-31 renal, 3.12 µM; in the test on SK-OV-3 ovarian it was 25.2 µM; in the test on SR leukemia it was 4.38 µM. Besides, the TGI in the test with T-47D breast is 4.38 µM; in the test on A549 NSCLC, 15 µM; in the test with K-562 leukemia it was 11.2 µM; with MOLT-4 leukemia it was 4.74 µM.
`CCS(=O)(=O)c1ccc(OC)c(Nc2ncc(-c3cccc(-c4ccccc4F)c3)o2)c1`: the GI50 in the test with DU-145 prostate is more than 25 µM; with SK-MEL-28 melanoma, more than 25 µM; in the test on SN12C renal, 14.8 µM; with UO-31 renal, 1.48 µM; with SK-OV-3 ovarian, 5.1 µM; in the test with SR leukemia it was more than 25 µM. Further, the GI50 in the test on T-47D breast is 6.45 µM; in the test on A549 NSCLC, more than 25 µM; in the test with K-562 leukemia, 5.75 µM; in the test on MOLT-4 leukemia, more than 25 µM. Besides, the TGI in the test with DU-145 prostate is more than 25 µM; in the test with SK-MEL-28 melanoma, more than 25 µM; in the test with SN12C renal, more than 25 µM; in the test on UO-31 renal it was 20.3 µM; in the test on SK-OV-3 ovarian it was 14.3 µM; with SR leukemia, more than 25 µM. For the same compound, the concentration for total growth inhibition (TGI) in the test with T-47D breast, in the test with A549 NSCLC, in the test with K-562 leukemia and with MOLT-4 leukemia was more than 25 µM throughout.
As for `O=C(Nc1cccnc1)c1cccs1`, the GI50 is 4.6 µM with DU-145 prostate; 0.677 µM in the test on SK-MEL-28 melanoma; 25.8 µM with SN12C renal; more than 100 µM with UO-31 renal; 5.57 µM with SK-OV-3 ovarian; 8.47 µM with SR leukemia. Also, the GI50 is more than 100 µM in the test on T-47D breast, 5.6 µM in the test on A549 NSCLC, 0.728 µM in the test on K-562 leukemia and 3.19 µM in the test with MOLT-4 leukemia. Moreover, the TGI in the test with DU-145 prostate, in the test with SK-MEL-28 melanoma, in the test on SN12C renal, with UO-31 renal, in the test with SK-OV-3 ovarian and with SR leukemia was more than 100 µM in each case. For the same compound, the total growth inhibition concentration (TGI) in the test on T-47D breast, in the test with A549 NSCLC, in the test on K-562 leukemia and in the test on MOLT-4 leukemia was more than 100 µM each time.
